This is an account of results in patent US12187709B2 (Genentech, Inc., priority 2021, dated 2025).

One assay has as its target Cbl-b (Homo sapiens (Human), UniProt Q13191). Description: Cbl-b LCK Ub TR-FRET assay (Cbl-b Lck HTRF). As to conditions: for IC50: Cbl-b LCK Ub TR-FRET; for fold-selectivity (Cbl-b over C-cbl): ratio C-cbl Lck HTRF IC50 / Cbl-b Lck HTRF IC50. Format: biochemical. The method in brief:
(§1)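 Detection reagents added, brief spin, 20 min RT. IC50 fit normalized to no-LCK (low) and DMSO (high) controls.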
On the technique in general: In TR-FRET formats the signal depends on donor and acceptor labels being close together.

In the next assay the target is c-Cbl (Homo sapiens (Human), UniProt P22681). Description: C-Cbl LCK Ub TR-FRET assay (C-cbl Lck HTRF). Format: biochemical. The method in brief:
as §1

The target of assay [1] is Human Cbl-b (residues 40-426) (Homo sapiens (Human), UniProt Q13191). Briefly: Cbl-b SPR assay. Format: binding. As to conditions: for Fold of selectivity: C-cbl SPR Kd vs Cbl-b SPR Kd; for Kd: SPR, 20° C. In a few lines: (§2)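 SPR, multi-cycle, 6-pt 2-fold series, blanks flanking for double referencing; capture 1300-1500 RU; contact 60 s at 40 μl/min; dissoc. 120-1200 s (~4-5 half-lives). 1:1 fit. Chaser variant: single cycle, 5 conc., top 500 nM, 120 s contact, 450 s dissociation.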

The target in another assay is c-Cbl (residues 47-435) (Homo sapiens (Human), UniProt P22681). Description: c-Cbl SPR assay. As to conditions: 20° C. The format is binding. The method in brief:
as §2
Background: Surface plasmon resonance follows binding to a sensor surface in real time, without labels.

Chain of Human Cbl-b (residues 40-426) (Q13191 40-426): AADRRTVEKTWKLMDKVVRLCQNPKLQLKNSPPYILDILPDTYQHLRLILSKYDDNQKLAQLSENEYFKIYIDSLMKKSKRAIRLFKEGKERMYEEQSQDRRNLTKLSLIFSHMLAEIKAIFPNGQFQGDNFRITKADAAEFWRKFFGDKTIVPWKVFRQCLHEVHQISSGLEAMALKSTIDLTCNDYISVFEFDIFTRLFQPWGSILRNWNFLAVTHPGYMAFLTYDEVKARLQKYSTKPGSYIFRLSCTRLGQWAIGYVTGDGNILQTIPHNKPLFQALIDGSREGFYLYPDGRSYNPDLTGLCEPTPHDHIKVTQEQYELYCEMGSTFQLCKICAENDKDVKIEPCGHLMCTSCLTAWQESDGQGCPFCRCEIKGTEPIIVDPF
Chain of Cbl-b (Q13191 40-426): as above
Chain of c-Cbl (residues 47-435) (P22681 47-435): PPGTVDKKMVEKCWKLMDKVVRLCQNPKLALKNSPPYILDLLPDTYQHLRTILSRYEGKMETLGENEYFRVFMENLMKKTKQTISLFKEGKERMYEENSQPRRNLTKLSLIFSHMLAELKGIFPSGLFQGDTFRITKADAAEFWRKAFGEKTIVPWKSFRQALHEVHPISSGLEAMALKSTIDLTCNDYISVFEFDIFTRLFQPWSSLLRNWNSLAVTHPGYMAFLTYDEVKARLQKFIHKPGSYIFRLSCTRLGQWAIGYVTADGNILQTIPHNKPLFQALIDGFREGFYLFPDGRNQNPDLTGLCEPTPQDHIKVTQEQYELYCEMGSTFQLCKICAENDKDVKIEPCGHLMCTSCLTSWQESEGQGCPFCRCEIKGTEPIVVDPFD
Chain of c-Cbl (P22681 47-435): as above

The term IC50 denotes the point on the concentration scale where inhibition reaches its midpoint. Read a high IC50 as weaker potency in that assay. As usually defined, the Kd is the free concentration of one partner at which half of the binding sites on the other are occupied at equilibrium, for simple one-to-one binding. Read a low Kd as tighter binding. For the compound `CO[C@H]1C[C@@](c2cccc(N3Cc4c(cc([C@@H](C)NC5(C)CCC5)cc4C(F)(F)F)C3=O)c2)(c2nncn2C)C1` (single isomer, unassigned) [Compound 175], the IC50 at Cbl-b is 9.6 nM; against c-Cbl, 9.7 nM. Besides, at Cbl-b, the “fold-selectivity (Cbl-b over C-cbl)” value was 1.0x. The Fold of selectivity in assay [1] is 6.4×. Moreover, the Kd in assay [1] stood at 0.95 nM; at c-Cbl (residues 47-435), 6 nM.
In the case of `CO[C@H]1C[C@@](c2cccc(N3Cc4c(cc([C@H](C)NC5(C)CCC5)cc4C(F)(F)F)C3=O)c2)(c2nncn2C)C1` (single isomer, unassigned) [Compound 176], at Cbl-b, the half-inhibitory concentration (IC50) was found to be 62 nM and the “fold-selectivity (Cbl-b over C-cbl)” value was determined as 3.4x. In addition, on c-Cbl, the half-inhibitory concentration (IC50) amounted to 220 nM. Also, in assay [1], the Fold of selectivity came to 6.8× and the Kd came out at 41 nM. In addition, binding at c-Cbl (residues 47-435) was put at a Kd of 280 nM.
For the compound `CO[C@H]1C[C@](c2cccc(N3Cc4c(cc([C@@H](C)NC5(C)CCC5)cc4C(F)(F)F)C3=O)c2)(c2nncn2C)C1` (single isomer, unassigned) [Compound 184], the IC50 on Cbl-b turned out to be 7.6 nM; at c-Cbl it was 8.3 nM. Also, the “fold-selectivity (Cbl-b over C-cbl)” value at Cbl-b turned out to be 1.1x. In assay [1], the Fold of selectivity was found to be 6.3×. The values for the Kd (in assay [1]; at c-Cbl (residues 47-435)) were 0.42 nM and 2.5 nM, respectively.
`CO[C@H]1C[C@](c2cccc(N3Cc4c(cc([C@H](C)NC5(C)CCC5)cc4C(F)(F)F)C3=O)c2)(c2nncn2C)C1` (single isomer, unassigned) [Compound 185]: at Cbl-b, inhibition was half-maximal at 23 nM (IC50) and the “fold-selectivity (Cbl-b over C-cbl)” value is 6.7x. The midpoint of inhibition at c-Cbl, the IC50, lay at 150 nM. In assay [1], this compound had a Fold of selectivity of 29× and a dissociation constant Kd of 3.2 nM. The Kd at c-Cbl (residues 47-435) amounted to 97 nM.
For `CC(C)[C@H]1CN(C)CCN1Cc1cc(Cl)c2c(c1)C(=O)N(c1cccc(C3(c4nncn4C)CC4(COC4)C3)c1)C2` (single isomer, unassigned) [Compound 204], the IC50 on Cbl-b worked out at 13 nM; on c-Cbl, 29 nM. For the same compound, the “fold-selectivity (Cbl-b over C-cbl)” value on Cbl-b was found to be 2.3x. The compound further yielded a Fold of selectivity in assay [1] of 4.1×. Further, the Kd in assay [1] was 3.7 nM; at c-Cbl (residues 47-435), 15 nM.
Regarding `C=C[C@@H](C)Nc1cc(N2Cc3c(cc(CNC4(C)CCC4)cc3C(F)(F)F)C2=O)cc([C@]2(c3nncn3C)C[C@H](OC)C2)c1` (single isomer, unassigned) [Compound 219], the IC50 is 13 nM against Cbl-b and 36 nM on c-Cbl. For the same compound, the “fold-selectivity (Cbl-b over C-cbl)” value on Cbl-b turned out to be 2.7x. The compound also returned a Fold of selectivity in assay [1] of 6.5×. The Kd came to 4.5 nM in assay [1] and 29 nM on c-Cbl (residues 47-435).
Take `C=C[C@H](C)Nc1cc(N2Cc3c(cc(CNC4(C)CCC4)cc3C(F)(F)F)C2=O)cc([C@]2(c3nncn3C)C[C@H](OC)C2)c1` (single isomer, unassigned) [Compound 220]: the IC50 at Cbl-b came out at 13 nM; on c-Cbl, 39 nM. Besides, at Cbl-b, the “fold-selectivity (Cbl-b over C-cbl)” value came out at 3.0x. The Fold of selectivity in assay [1] is given as 13×. The Kd in assay [1] came to 2.7 nM; on c-Cbl (residues 47-435), 34 nM.
As to `CO[C@H]1C[C@](c2cc(N[C@H](C)CC#N)cc(N3Cc4c(cc(CNC5(C)CCC5)cc4C(F)(F)F)C3=O)c2)(c2nncn2C)C1` (single isomer, unassigned) [Compound 221], on Cbl-b, half-maximal inhibition (IC50) required 11 nM and the “fold-selectivity (Cbl-b over C-cbl)” value is reported as 1.5x. The compound also registered an IC50 against c-Cbl of 16 nM. In assay [1], this compound had a Fold of selectivity of 5.8× and a Kd of 1.3 nM. Besides, at c-Cbl (residues 47-435), the Kd is 7.6 nM.
As to `CO[C@H]1C[C@](c2cc(N[C@@H](C)CC#N)cc(N3Cc4c(cc(CNC5(C)CCC5)cc4C(F)(F)F)C3=O)c2)(c2nncn2C)C1` (single isomer, unassigned) [Compound 225], at Cbl-b, the IC50 was found to be 18 nM and the “fold-selectivity (Cbl-b over C-cbl)” value was 4.0x. This compound displayed an IC50 at c-Cbl of 72 nM. In assay [1], the Fold of selectivity worked out at 5.6× and binding was put at a Kd of 6.9 nM. Besides, the Kd on c-Cbl (residues 47-435) stood at 39 nM.
On to `CO[C@H]1C[C@@](c2cc(N[C@H](C)CC#N)cc(N3Cc4c(cc(CNC5(C)CCC5)cc4C(F)(F)F)C3=O)c2)(c2nncn2C)C1` (single isomer, unassigned) [Compound 228], for which the IC50 was determined as 16 nM against Cbl-b and 21 nM against c-Cbl. For the same compound, at Cbl-b, the “fold-selectivity (Cbl-b over C-cbl)” value came to 1.3x. For the same compound, the Fold of selectivity in assay [1] was 8.7×. Besides, the Kd in assay [1] was found to be 1.9 nM; at c-Cbl (residues 47-435), 16 nM.
In the case of `CO[C@H]1C[C@@](c2cc(N[C@@H](C)CC#N)cc(N3Cc4c(cc(CNC5(C)CCC5)cc4C(F)(F)F)C3=O)c2)(c2nncn2C)C1` (single isomer, unassigned) [Compound 233], the IC50 at Cbl-b came out at 40 nM; on c-Cbl, 200 nM. Further, the “fold-selectivity (Cbl-b over C-cbl)” value at Cbl-b is listed as 5.0x. Further, the Fold of selectivity in assay [1] was 7.1×. Besides, the figures for the Kd (in assay [1]; on c-Cbl (residues 47-435)) were 21 nM and 150 nM, respectively.
Turning to `Cn1cnnc1[C@H](c1cccc(N2Cc3c(cc(CNC4(C)CCC4)cc3C(F)(F)F)C2=O)c1)C1CCC1` (single isomer, unassigned) [Compound 259], the IC50 against Cbl-b and on c-Cbl was 16 nM in each case. The “fold-selectivity (Cbl-b over C-cbl)” value at Cbl-b is on record as 1.0x. In addition, in assay [1], the Fold of selectivity came to 5.5×. Further, the figures for the Kd (in assay [1]; on c-Cbl (residues 47-435)) were 0.22 nM and 1.1 nM, respectively.
Regarding `Cn1cnnc1[C@H](c1cccc(N2Cc3c(cc(CNC4(C)CCC4)cc3C(F)(F)F)C2=O)c1)C1CC(OCC(F)F)C1` (single isomer, unassigned) [Compound 262], on Cbl-b, the IC50 is 38 nM and the “fold-selectivity (Cbl-b over C-cbl)” value was determined as 7.1x. The compound further gave an IC50 against c-Cbl of 270 nM. Besides, in assay [1], the Fold of selectivity was 12× and the Kd was 13 nM. This compound came in with a Kd on c-Cbl (residues 47-435) of 150 nM.
For the compound `Cn1cnnc1[C@H](c1cccc(N2Cc3c(cc(CNC4(C)CCC4)cc3C(F)(F)F)C2=O)c1)C1CC(OCC(F)F)C1` (single isomer, unassigned) [Compound 263], the IC50 at Cbl-b is 10 nM; at c-Cbl, 18 nM. Further, on Cbl-b, the “fold-selectivity (Cbl-b over C-cbl)” value was determined as 1.8x. The Fold of selectivity in assay [1] stood at 5.4×. Besides, the Kd stood at 1.9 nM in assay [1] and 10 nM on c-Cbl (residues 47-435).
Consider `CCOC1CC([C@H](c2cccc(N3Cc4c(cc(CNC5(C)CCC5)cc4C(F)(F)F)C3=O)c2)c2nncn2C)C1` (single isomer, unassigned) [Compound 265], for which, at Cbl-b, 310 nM corresponded to half-maximal inhibition (IC50) and the “fold-selectivity (Cbl-b over C-cbl)” value was 11x. For the same compound, the midpoint of inhibition on c-Cbl, the IC50, lay at 3400 nM. In assay [1], this compound came in with a Fold of selectivity of 7.5× and a Kd of 180 nM. Also, binding at c-Cbl (residues 47-435) was characterised by a dissociation constant (Kd) of 1300 nM.
On to `CCOC1CC([C@@H](c2cccc(N3Cc4c(cc(CNC5(C)CCC5)cc4C(F)(F)F)C3=O)c2)c2nncn2C)C1` (single isomer, unassigned) [Compound 267], for which, at Cbl-b, the midpoint of inhibition, the IC50, lay at 37 nM and the “fold-selectivity (Cbl-b over C-cbl)” value was 4.5x. Also, the midpoint of inhibition against c-Cbl, the IC50, lay at 170 nM. In assay [1], the Fold of selectivity is 7.6× and the Kd worked out at 25 nM. The compound also came in with a Kd on c-Cbl (residues 47-435) of 190 nM.
